Test results from patent EP3831363A1 (Solis Herrera, Arturo, priority 2019, dated 2021).
≈ marks a conversion by molar mass, not a printed value.

Key:
in vitro = details: human, peripheral blood leukocytes
Procedure: (§4) Thereby, cell viability was determined on the basis of the mitochondria-dependent reduction of MTT (3-[4,5-dimethyltiazol 2yl]-2,5-diphenyltetrazolium bromide) to formazan. […] Next cells were treated with 20 µl of MTT. After 3 hours of incubation at 37°C, the formazan blue formed in the cells was dissolved in 100 µl of SDS (sodium dodecylsulfate) for 3 hours in 37°C. The optical density was measured at 570 nm.
(§5) After the cytotoxicity tests LC50 (LCso-lethal concentration, 50%-dose required to kill half of the cells after a specified test duration) were estimated for each cell lines and PBLs (leukocytes of peripheral blood). Additionally for PBLs LC10 and LC5 were calculated.

H1N1 virus = details: H1N1 infected chicken, 0,002 mg/kg each 24 hours, 24 hours after treatment, versus control group
[1] = rats given 4,5 mg/kg of mercury (HgHCI); treatment of 0,0937 mg/ml; without treatment 6 in 8 rats died
TNF-α production = tested on: TNF-α production
Procedure: (§1) After 24 hours of incubation in 37°C/5%CO2 samples of leukocytes and supernatants were collected.
(§2) Cytokine levels were determined using ELISA kits (BD Biosciences, USA) for human IFNγ, TNF-α and IL-6 and DuoSet for human IL-3 (R&D Systems, USA) according to the producers' instructions. The optical density was measured at 450 nm using a Multiskan RC spectrophotometric reader (Thermo Labsystems, USA), Cytokine concentrations were expressed in pg/ml.

IFN-γ production = tested on: IFN-γ production
Procedure: as §1, §2

IL-6 production = tested on: IL-6 production
Procedure: as §1, §2

human PBLs = details: human leukocytes, 48 hours, MTT
Procedure: as §4, §5

[2] = in vivo
Excerpt: Thereby the healing process of a human ulcer is examined as a basic condition.

A549 cells = assay: cells; details: Homo sapiens, A549, 96 h
Procedure: (§3) Further, a proliferation test was prepared for the same three cell lines: WI-38, A549 and HS 683. 3x10^4 WI-38 cells and 2x10^4 A549 and HS 683. Cells were seeded into each wells in 96-well culture plates in appropriate culture medium with 10% FBS (fetal bovine serum). […] After 96 hours incubation in 37°C/5%CO2 MTT assay was performed for establishing the cell viability.

WI-38 cells = assay: cells; details: Homo sapiens, WI-38, 96 h
Procedure: as §3

HS-683 = assay: cells; details: Homo sapiens, Hs 683, 96 h
Procedure: as §3

[3] = read-out: concentration that inhibits 50% of the proliferation

CN1CCC[C@H]1c1cccnc1
CC50 at 48 h (in vitro): 7000 µg/mL (≈ 43.1 mM)
egg production (H1N1 virus): began to lay off eggs
mortality [1]: 0,625 of 8 rats
effect on TNF-α production (TNF-α production): increases the level of cytokines in a dose-dependent manner
effect on IFN-γ production (IFN-γ production): strongly decreases the level of interferon in a dose-dependent manner
effect on IL-6 production (IL-6 production): no effect
LC5 (human PBLs): 0,5 mg/ml
LC10 (human PBLs): 1000 µg/mL (≈ 6.16 mM)
healing effect on ulcer [2]: increased healing effect
IC50 (A549 cells; [3]): 2000 µg/mL (≈ 12.3 mM)
IC99 (A549 cells; read-out: concentration that inhibits 99% of the proliferation): 5500 µg/mL
IC50 (WI-38 cells; [3]): 1000 µg/mL (≈ 6.16 mM)
IC99 (WI-38 cells; read-out: concentration that inhibits a proliferation of 99%): 4500 µg/mL
IC99 (HS-683; read-out: concentration at which 99% of proliferation are inhibited): 5500 µg/mL
IC50 (HS-683; [3]): 2900 µg/mL (≈ 17.9 mM)
